According to patent US20090258786A1, “Controlled release agricultural products and processes for making the same” (priority 2000, published 2009):

Assay: Controlled release soil test (irrigated soil burial test)
Type: physicochemical
From the text: To measure the relative solubilities of the products in soil, an irrigated soil burial test was devised such that granules could be retrieved for measurement of their nitrogen content. The following is a description of the test.
Procedure for Controlled Release Soil Test
1. Screen the sample to obtain −6+7 Tyler mesh granules for the test.
4. Place 300 g of potting soil with a 40% moisture content into the container and record the weight.
7. Spread 5 grams of −6+7 Tyler mesh granules over the screen in a single layer and record the weight.
13. Mist 4 g of water into each container and immediately place the lid on container and seal.
14. After the fertilizer granules have been submerged in a humid soil environment for the allotted time (9 hours, 24 hours, and 3 days), the 150 g of soil is removed from the container.
18. Place the fertilizer granules in a laboratory oven to dry at low temperature (50° C.) for 13 hours.
20. Place the dry fertilizer sample into a 125 mL plastic sample bottle containing 20 g of de-ionized water.
21. Allow the sample to dissolve for 3 hours.
22. Place approximately 1 ml aliquot of the sample solution onto the sample stage of a refractometer(e.g., Abbe Refractometer).
23. Record the refractive index and temperature of the solution.
24. Calculate the percent urea retained from the original fertilizer sample.

For `NC(N)=O` [plain urea, urea], the “time in which particles went into solution, soil test” value was no more than 9 h.
